Activity calls are given as the source filed them. Rule as the data show it: actives have a measured EC50 and inactives only a lower limit.

The first assay addresses T1, RNA-binding protein pos-1 (Caenorhabditis elegans, UniProt G5EF15).
T1 sequence (G5EF15 whole entry): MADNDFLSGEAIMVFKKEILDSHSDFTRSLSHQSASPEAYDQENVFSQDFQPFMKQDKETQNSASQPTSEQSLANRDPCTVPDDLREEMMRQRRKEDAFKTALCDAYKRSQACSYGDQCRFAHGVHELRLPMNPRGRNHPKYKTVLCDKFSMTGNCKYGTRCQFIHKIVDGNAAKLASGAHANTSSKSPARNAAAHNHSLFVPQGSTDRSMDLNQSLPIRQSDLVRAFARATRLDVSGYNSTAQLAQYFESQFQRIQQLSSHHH
The assay can be described thus: disruptors of C. elegans POS-1 RNA interaction – biochemical, fluorescence polarization, dose response (AID 1964).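 Also: purified POS-1 fused to maltose binding protein made in E. coli; potency of compounds blocking POS-1 binding to fluorescent RNA.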
For orientation: EC50 means the concentration giving half of the maximal effect. As for `O=C1NC(=O)/C(=C2\C(=O)Nc3ccc(Br)cc32)S1`, the EC50 was 17 µM (active).

Take `CC1(C)CC(=O)C2=C(C1)OC(N)=C(C#N)C2c1ccc(OC(=O)N2CCOCC2)cc1` (stereo not given): the EC50 is on record as > 300 µM (not active).

Turning to `CCc1c(C)nc(SCC(=O)NNC(=O)c2ccco2)[nH]c1=O`, the EC50 was 7.26 µM (inconclusive).

As for `Cc1cc(N2C(=O)C(O)=C(C(=O)c3cc4ccccc4o3)C2c2ccc([N+](=O)[O-])cc2)no1` (stereo not given), the EC50 is > 300 µM (not active).

As to `Cc1ccc(-c2ccc(CCC(=O)O)n2-c2ccc(C(=O)O)cc2)cc1`, the EC50 is on record as > 300 µM (not active).

Regarding `CCn1c(CNC(=O)c2ccc(Cl)cc2)nnc1SCC(=O)N1CCOCC1`, the EC50 was > 300 µM (not active).

As to `CC1(OC(=O)C2CCCC2)C(=O)C=C2C=C(C3CC3)OC=C2C1=O` (stereo not given), the EC50 is recorded as > 300 µM (not active).

As for `Cc1cc(/C=N/n2cnnc2)c(C)n1-c1ccc(C(=O)O)cc1`, the EC50 is listed as > 300 µM (not active).

As to `Cc1ccc(/C=C2\C(=O)NC(=O)N(CC3CCCO3)C2=O)s1` (stereo not given), the EC50 is > 300 µM (not active).

`COc1ccc(C2=CC3=CC(=O)C(C)(O)C(=O)C3=CO2)cc1` (stereo not given): the EC50 was 45.6 µM (active).

The target of a further assay is T2, Zinc finger protein mex-5 (Caenorhabditis elegans, UniProt Q9XUB2).
T2 sequence (Q9XUB2 whole entry): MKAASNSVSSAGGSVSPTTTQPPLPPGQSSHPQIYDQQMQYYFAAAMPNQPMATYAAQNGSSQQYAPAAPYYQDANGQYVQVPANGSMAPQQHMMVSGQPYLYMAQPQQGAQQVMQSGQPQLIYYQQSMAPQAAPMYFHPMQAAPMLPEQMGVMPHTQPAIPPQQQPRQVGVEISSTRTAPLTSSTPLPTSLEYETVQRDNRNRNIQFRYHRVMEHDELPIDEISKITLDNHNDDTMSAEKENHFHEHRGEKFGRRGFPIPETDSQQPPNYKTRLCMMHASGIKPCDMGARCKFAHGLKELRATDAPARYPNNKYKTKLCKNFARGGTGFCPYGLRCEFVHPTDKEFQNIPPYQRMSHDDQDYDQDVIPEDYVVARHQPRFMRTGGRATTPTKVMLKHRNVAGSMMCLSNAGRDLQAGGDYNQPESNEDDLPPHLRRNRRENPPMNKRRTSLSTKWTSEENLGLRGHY
The assay can be described thus: potency of MEX-5 RNA-binding blockers – biochemical, C. elegans, fluorescence polarization, dose response (AID 1960). In general terms: In fluorescence polarisation assays a small probe gives low polarisation when free and higher when bound to something large.
For `O=C1NC(=O)/C(=C2\C(=O)Nc3ccc(Br)cc32)S1`, the EC50 was 11 µM (active).

With `CC1(C)CC(=O)C2=C(C1)OC(N)=C(C#N)C2c1ccc(OC(=O)N2CCOCC2)cc1` (stereo not given), the EC50 is > 300 µM (not active).

Turning to `CCc1c(C)nc(SCC(=O)NNC(=O)c2ccco2)[nH]c1=O`, the EC50 was 10.1 µM (active).

For the molecule `Cc1cc(N2C(=O)C(O)=C(C(=O)c3cc4ccccc4o3)C2c2ccc([N+](=O)[O-])cc2)no1` (stereo not given), the EC50 was 45.4 µM (active).

Regarding `Cc1ccc(-c2ccc(CCC(=O)O)n2-c2ccc(C(=O)O)cc2)cc1`, the EC50 is listed as > 300 µM (not active).

Regarding `CCn1c(CNC(=O)c2ccc(Cl)cc2)nnc1SCC(=O)N1CCOCC1`, the EC50 is listed as > 300 µM (not active).

In the case of `CC1(OC(=O)C2CCCC2)C(=O)C=C2C=C(C3CC3)OC=C2C1=O` (stereo not given), the EC50 is > 300 µM (not active).

Consider `Cc1cc(/C=N/n2cnnc2)c(C)n1-c1ccc(C(=O)O)cc1`, for which the EC50 is on record as > 300 µM (not active).

Consider `Cc1ccc(/C=C2\C(=O)NC(=O)N(CC3CCCO3)C2=O)s1` (stereo not given), for which the EC50 was > 300 µM (not active).

Regarding `COc1ccc(C2=CC3=CC(=O)C(C)(O)C(=O)C3=CO2)cc1` (stereo not given), the EC50 was 25.5 µM (active).
